According to US20250115598A1 (Anaxis Pharma Pty Ltd, priority 2021, published 2025):

Assays:
[1] = test system: Immortalised Mouse Dermal Fibroblasts (MDFs); assay: Cellular assay: inhibition of TSI induced necroptosis, CellTitre-Glo viability; conditions: Mus musculus, Fibroblast; MDF, 3 hours TSI cocktail, Table 27; read-out: Inhibition of TSI-induced necroptosis (IC50 cell-based assay) in MDF
Method in brief: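 Immortalised mouse dermal fibroblasts (2200 cells/well) pretreated 30 min with compound, 10-point 1:3 series from 36 μM, 0.3% DMSO. Then 3 h at 37° C. with TNF (100 ng/ml), Smac mimetic (500 nM) and IDN-6556 (10 μM). CellTiter-Glo luminescence normalised to DMSO (100%) and DMSO+TSI (0%); IC50 from 4-parameter logistic fit.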

endogenous MLKL in MDF = endogenous MLKL in MDF (Mus musculus (Mouse), UniProt Q9D2Y4); assay: Degradation assay: endogenous MLKL in MDF (western blot); conditions: MDF cells, 24 h incubation with compound, MLKL adjusted for loading with GAPDH, normalized to DMSO only control, read-out: Degradation of endogenous MLKL in MDF (DC50 cell-based assay)
Experimental: Degradation Assay: Screening Compounds Procedure to Evaluate the Activity of Compounds in Degrading Endogenous MLKL in Human and Mouse Cell
The mouse dermal fibroblast (MDF) cell line was seeded the day before the experiment in a 24-well plate at a cell density of […] per well in a volume of 0.5 mL per well and left to attach overnight. The human monocyte cell line (U937) was seeded on the day of the experiment in a 24-well plate at a cell density of […] per well in a volume of 0.5 mL per well.
The compound was diluted in DMSO with a starting concentration of 10 mM and titrated stepwise with a dilution of 1:5. 0.5 μL of the compound dilution was added to the appropriate well to achieve a final concentration of 10; 2; 0.4; 0.08 and 0.016 μM. A DMSO only well was included as control.
The cells were incubated for 24 h in the presence of the compound at 37° C. and 10% CO2.
After the 24 h incubation period, the medium was removed and cells washed with 0.5 mL PBS. The cells were then lysed directly in 60 μL of 1×SDS gel loading buffer.
The cell lysate was heat-denatured at […] for 10 min. 10 μL of lysate per well were run on 18-well 4-15% Criterion TGX stain free gels (BIO-RAD). The proteins were then transferred onto nitrocellulose membrane with a wet transfer protocol in the Criterion Blotter (BIO-RAD).
Membranes were blocked with 5% skim milk in TBST. Primary antibody against MLKL (clone 3H1, MABC604 Merck) was used at 1:2000 dilution in TBST with 1% BSA and left shaking over night at 4° C. After washes with TBST, the membranes were incubated with goat anti-rat IgG HRP-conjugated antibody (Southern Biotech) in 1% skim milk TBST at 1:10000 dilution for 1 h at room temperature. After TBST washes the bands were imaged on the ChemiDoc MP Imaging System (BIO-RAD) with Immobilion Western Chemiluminescent HRP Substrate Forte (Millipore). The loading control GAPDH was probed for with rabbit anti-GAPDH (CST 14C10) at 1:2000 dilution in 1% BSA TBST over night at 4° C. TBST washes were followed by incubation with goat anti-rabbit IgG HRP-conjugated antibody (Southern Biotech) in 1% skim milk TBST at 1:10000 dilution for 1 h at room temperature followed by TBST washes. The signal was detected as described above.
The band intensity was measured in the ImageLab Software (BIO-RAD) and the MLKL values adjusted for loading with GAPDH. The percentage of degradation was calculated by normalizing the compound treated values to the DMSO only control.

human MLKL (full length) = human MLKL (full length) (Homo sapiens (Human), UniProt Q8NB16); assay: KINOMEscan binding assay, human MLKL (full length); conditions: hMLKL, Table 25; read-out: MLKL (KD)
Method in brief: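 Binding constants were derived by fitting qPCR-quantified bead-retained kinase against compound concentration to the Hill equation, slope set at −1. Compound series were 3-fold over 11 points with 1% DMSO; most top concentrations were 30,000 nM. Kinases were T7-phage-tagged or HEK-293-produced with DNA tags.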

human MLKL (full length), sequence (Q8NB16 whole entry): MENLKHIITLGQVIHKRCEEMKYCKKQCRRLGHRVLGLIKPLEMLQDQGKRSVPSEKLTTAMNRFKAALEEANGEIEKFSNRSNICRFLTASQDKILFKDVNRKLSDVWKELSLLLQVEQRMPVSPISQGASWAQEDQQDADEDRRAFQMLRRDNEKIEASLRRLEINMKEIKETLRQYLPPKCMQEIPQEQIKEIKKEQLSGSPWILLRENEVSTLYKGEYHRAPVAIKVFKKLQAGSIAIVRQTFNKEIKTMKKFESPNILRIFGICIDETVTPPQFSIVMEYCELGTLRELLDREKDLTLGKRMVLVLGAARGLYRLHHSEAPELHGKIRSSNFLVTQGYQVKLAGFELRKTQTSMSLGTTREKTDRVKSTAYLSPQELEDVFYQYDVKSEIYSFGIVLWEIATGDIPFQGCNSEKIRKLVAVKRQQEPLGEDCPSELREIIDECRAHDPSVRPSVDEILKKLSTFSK
endogenous MLKL in MDF, sequence (Q9D2Y4 whole entry): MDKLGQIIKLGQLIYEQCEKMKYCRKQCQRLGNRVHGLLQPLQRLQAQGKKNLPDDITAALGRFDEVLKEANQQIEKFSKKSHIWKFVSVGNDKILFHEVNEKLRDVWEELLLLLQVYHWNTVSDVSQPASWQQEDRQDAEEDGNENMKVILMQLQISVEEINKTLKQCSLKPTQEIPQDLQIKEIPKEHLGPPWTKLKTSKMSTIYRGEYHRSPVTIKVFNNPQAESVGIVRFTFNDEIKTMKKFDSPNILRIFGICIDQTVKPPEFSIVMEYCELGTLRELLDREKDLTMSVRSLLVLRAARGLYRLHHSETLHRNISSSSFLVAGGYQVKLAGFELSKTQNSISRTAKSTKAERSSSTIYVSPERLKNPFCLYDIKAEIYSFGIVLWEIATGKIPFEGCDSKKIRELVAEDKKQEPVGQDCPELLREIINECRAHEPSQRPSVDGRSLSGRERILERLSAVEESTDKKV

CN[C@@H](C)C(=O)N[C@H](C(=O)N1CC(NC(=O)CCCCCCCCn2cc(-c3cnc(N)c4c(-c5ccc(NS(=O)(=O)C(F)F)c(O[C@@H](C)c6ccc(F)cc6)c5)nn(C)c34)cn2)C[C@H]1C(=O)Nc1c(F)cccc1F)C(C)(C)C (stereo partly drawn) [Compound 1090, (2S)-4-[9-(4-{4-amino-3-[4-(difluoromethanesulfonamido)-3-[(1S)-1-(4-fluorophenyl)ethoxy]phenyl]-1-methyl-1H-pyrazolo[4,3-c]pyridin-7-yl}-1H-pyrazol-1-yl)nonanamido]-N-(2,6-difluorophenyl)-1-[(2S)-3,3-dimethyl-2-[(2S)-2-(methylamino)propanamido]butanoyl]pyrrolidine-2-carboxamide]
IC50 [1]: 1 to 10 µM
DC50 (endogenous MLKL in MDF): 1 to 10 µM
Kd (human MLKL (full length)): < 0.01 µM

C[C@H](Oc1cc(-c2nn(C)c3c(-c4cnn(C5CCN(C(=O)CCC6CCN(c7cc8c(cc7F)C(=O)N(C7CCC(=O)NC7=O)C8=O)CC6)CC5)c4)cnc(N)c23)ccc1NS(=O)(=O)C(F)F)c1ccc(F)cc1 (stereo partly drawn) [Compound 1087, N-[4-(4-amino-7-{1-[1-(3-{1-[2-(2,6-dioxopiperidin-3-yl)-6-fluoro-1,3-dioxo-2,3-dihydro-1H-isoindol-5-yl]piperidin-4-yl}propanoyl)piperidin-4-yl]-1H-pyrazol-4-yl}-1-methyl-1H-pyrazolo[4,3-c]pyridin-3-yl)-2-[(1S)-1-(4-fluorophenyl)ethoxy]phenyl]-1,1-difluoromethanesulfonamide]
IC50 [1]: < 1 µM
DC50 (endogenous MLKL in MDF): < 1 µM
Kd (human MLKL (full length)): 0.01 to 1 µM

C[C@H](Oc1cc(-c2nn(C)c3c(-c4cnn(C5CCN(C(=O)[C@H]6C[C@H](Nc7cccc8c7C(=O)N(C7CCC(=O)NC7=O)C8=O)C6)C6(CC6)C5)c4)cnc(N)c23)ccc1NS(=O)(=O)C(F)F)c1ccc(F)cc1 (stereo partly drawn) [Compound 1107, N-{4-[4-amino-1-methyl-7-(1-{4-[(1r,3r)-3-{[2-(2,6-dioxopiperidin-3-yl)-1,3-dioxo-2,3-dihydro-1H-isoindol-4-yl]amino}cyclobutanecarbonyl]-4-azaspiro[2.5]octan-7-yl}-1H-pyrazol-4-yl)-1H-pyrazolo[4,3-c]pyridin-3-yl]-2-[(1S)-1-(4-fluorophenyl)ethoxy]phenyl}-1,1-difluoromethanesulfonamide]
IC50 [1]: < 1 µM
DC50 (endogenous MLKL in MDF): < 1 µM
Kd (human MLKL (full length)): 0.01 to 1 µM

C[C@H](Oc1cc(-c2nn(C)c3c(-c4cnn(C5CCN(C(=O)c6ccc7c(c6)CN(C6CCC(=O)NC6=O)C7=O)CC5)c4)cnc(N)c23)ccc1NS(=O)(=O)C(F)F)c1ccc(F)cc1 (stereo partly drawn) [Compound 1096, N-{4-[4-amino-7-(1-{1-[2-(2,6-dioxopiperidin-3-yl)-1-oxo-2,3-dihydro-1H-isoindole-5-carbonyl]piperidin-4-yl}-1H-pyrazol-4-yl)-1-methyl-1H-pyrazolo[4,3-c]pyridin-3-yl]-2-[(1S)-1-(4-fluorophenyl)ethoxy]phenyl}-1,1-difluoromethanesulfonamide]
IC50 [1]: 1 to 10 µM
DC50 (endogenous MLKL in MDF): < 1 µM
Kd (human MLKL (full length)): < 0.01 µM

C[C@H](Oc1cc(-c2nn(C)c3c(-c4cnn(C5CCN(C(=O)N6CCN(c7cccc8c7C(=O)N(C7CCC(=O)NC7=O)C8=O)CC6)CC5)c4)cnc(N)c23)ccc1NS(=O)(=O)C(F)F)c1ccc(F)cc1 (stereo partly drawn) [Compound 1103, N-(4-{4-amino-7-[1-(1-{4-[2-(2,6-dioxopiperidin-3-yl)-1,3-dioxo-2,3-dihydro-1H-isoindol-4-yl]piperazine-1-carbonyl}piperidin-4-yl)-1H-pyrazol-4-yl]-1-methyl-1H-pyrazolo[4,3-c]pyridin-3-yl}-2-[(1S)-1-(4-fluorophenyl)ethoxy]phenyl)-1,1-difluoromethanesulfonamide]
IC50 [1]: < 1 µM
DC50 (endogenous MLKL in MDF): < 1 µM
Kd (human MLKL (full length)): < 0.01 µM

C[C@H](Oc1cc(-c2nn(C)c3c(-c4cnn(C5CCN(C(=O)CC6CCN(c7cccc8c7C(=O)N(C7CCC(=O)NC7=O)C8=O)C6)CC5)c4)cnc(N)c23)ccc1NS(=O)(=O)C(F)F)c1ccc(F)cc1 (stereo partly drawn) [Compound 1053, N-[4-(4-amino-7-{1-[1-(2-{1-[2-(2,6-dioxopiperidin-3-yl)-1,3-dioxo-2,3-dihydro-1H-isoindol-4-yl]pyrrolidin-3-yl}acetyl)piperidin-4-yl]-1H-pyrazol-4-yl}-1-methyl-1H-pyrazolo [4,3-c]pyridin-3-yl)-2-[(1S)-1-(4-fluorophenyl)ethoxy]phenyl]-1,1-difluoromethanesulfonamide]
IC50 [1]: < 1 µM
DC50 (endogenous MLKL in MDF): < 1 µM
Kd (human MLKL (full length)): 0.01 to 1 µM

Cc1ncsc1-c1ccc(CNC(=O)[C@@H]2C[C@@H](O)CN2C(=O)[C@@H](NC(=O)COCCOc2ccc(-c3cnc(N)c4c(-c5ccc(NS(=O)(=O)C(F)F)c(O[C@@H](C)c6ccc(F)cc6)c5)nn(C)c34)cc2)C(C)(C)C)cc1 [Compound 1049, (2S,4R)-1-[(2S)-2-{2-[2-(4-{4-amino-3-[4-(difluoromethanesulfonamido)-3-[(1S)-1-(4-fluorophenyl)ethoxy]phenyl]-1-methyl-1H-pyrazolo[4,3-c]pyridin-7-yl}phenoxy)ethoxy]acetamido}-3,3-dimethylbutanoyl]-4-hydroxy-N-{[4-(4-methyl-1,3-thiazol-5-yl)phenyl]methyl}pyrrolidine-2-carboxamide]
IC50 [1]: 1 to 10 µM
DC50 (endogenous MLKL in MDF): < 1 µM
Kd (human MLKL (full length)): 0.01 to 1 µM

C[C@H](Oc1cc(-c2nn(C)c3c(-c4cnn(C5CCN(C(=O)[C@H]6C[C@H](Nc7cccc8c7C(=O)N(C7CCC(=O)NC7=O)C8=O)C6)C(C)(C)C5)c4)cnc(N)c23)ccc1NS(=O)(=O)C(F)F)c1ccc(F)cc1 (stereo partly drawn) [Compound 1116, N-{4-[4-amino-7-(1-{2,2-dimethyl-1-[(trans)-3-{[2-(2,6-dioxopiperidin-3-yl)-1,3-dioxo-2,3-dihydro-1H-isoindol-4-yl]amino}cyclobutanecarbonyl]piperidin-4-yl}-1H-pyrazol-4-yl)-1-methyl-1H-pyrazolo[4,3-c]pyridin-3-yl]-2-[(1S)-1-(4-fluorophenyl)ethoxy]phenyl}-1,1-difluoromethanesulfonamide]
IC50 [1]: 1 to 10 µM
DC50 (endogenous MLKL in MDF): < 1 µM
Kd (human MLKL (full length)): < 0.01 µM

C[C@H](Oc1cc(-c2nn(C)c3c(-c4cnn(C5CCN(CCN6CCCC(COc7cccc8c7C(=O)N(C7CCC(=O)NC7=O)C8=O)C6)CC5)c4)cnc(N)c23)ccc1NS(=O)(=O)C(F)F)c1ccc(F)cc1 (stereo partly drawn) [Compound 1132, N-(4-{4-amino-7-[1-(1-{2-[3-({[2-(2,6-dioxopiperidin-3-yl)-1,3-dioxo-2,3-dihydro-1H-isoindol-4-yl]oxy}methyl)piperidin-1-yl]ethyl}piperidin-4-yl)-1H-pyrazol-4-yl]-1-methyl-1H-pyrazolo[4,3-c]pyridin-3-yl}-2-[(1S)-1-(4-fluorophenyl)ethoxy]phenyl)-1,1-difluoromethanesulfonamide]
IC50 [1]: < 1 µM
DC50 (endogenous MLKL in MDF): < 1 µM
Kd (human MLKL (full length)): 0.01 to 1 µM

C[C@H](Oc1cc(-c2nn(C)c3c(-c4cnn(C5CCN(C(=O)[C@H]6C[C@H](Nc7ccc8c(c7)C(=O)N(C7CCC(=O)NC7=O)C8=O)C6)CC5)c4)cnc(N)c23)ccc1NS(=O)(=O)C(F)F)c1ccc(F)cc1 (stereo partly drawn) [Compound 1094, N-{4-[4-amino-1-methyl-7-(1-{1-[(trans)-3-{[2-(2,6-dioxopiperidin-3-yl)-1,3-dioxo-2,3-dihydro-1H-isoindol-5-yl]amino}cyclobutanecarbonyl]piperidin-4-yl}-1H-pyrazol-4-yl)-1H-pyrazolo[4,3-c]pyridin-3-yl]-2-[(1S)-1-(4-fluorophenyl)ethoxy]phenyl}-1,1-difluoromethanesulfonamide]
IC50 [1]: < 1 µM
DC50 (endogenous MLKL in MDF): < 1 µM
Kd (human MLKL (full length)): < 0.01 µM
